From patent publication EP1285971B1, “Methods for the phenotypic and genotypic assessment of the drug sensitivity of HIV integrase variants” (Tibotec Pharmaceuticals Ltd., priority 2001, dated 2003) come the findings set out here.

For one assay, the system named is NL 4-3. Nature of the assay: microbe, parasite or virus in culture. Format: cell-based, HIV-1. The note with it: for fold change: fold change in EC50. The protocol: (§1) The integrase encoding sequence was amplified from either wildtype HIV-1 (IIIB) or NL4.3 virus, or HXB2D site-directed mutant viruses containing mutations in integrase (such as T66I, S153Y, M154I, or combinations thereof) (Hazuda et al., Science 2000, 287, 646-650), or patient samples. Starting from RNA, extracted from virus supernatant or plasma using the QIAamp® viral RNA extraction kit (Qiagen), cDNA was synthesized by reverse transcription (Expand TM reverse transcriptase, 30 min at 42°C) with the primer 3'EGINT10 (SEQ ID NO 11), followed by a nested PCR. The outer PCR was performed with the primers 5'EGINT1 (SEQ ID NO 1) and 3'EGINT10 (SEQ ID NO 11) (ΔR-IN-vif construct) or 5'EGINT3 (SEQ ID NO 4) and 3'EGINT10 (SEQ ID NO 11) (ΔIN construct) (Expand™ High Fidelity PCR system), and 5 µl of the outer product was used for an inner PCR with primers 5'EGINT2 (SEQ ID NO 3) and 3'EGINT11 (SEQ ID NO 12) (ΔR-IN-vif construct) or 5'EGINT4 (SEQ ID NO 5) and 3'EGINT6 (SEQ ID NO 7) (ΔIN construct). In a second protocol the outer primers were identical as described above, the inner primers are 5'EGINT5 (SEQ ID NO 6) and 3'EGINT6 (SEQ ID NO 7). The amplicons can be used for genotyping and phenotyping. Cycling conditions for both PCRs are denaturation for 3 min at 95°C, followed by 30 cycles of 1 min 90°C, 30 sec 55°C, and 2 min 72°C. A final extension was performed at 72°C for 10 min. For recombination, PCR products are purified using the QiaQuick® 96 PCR BioRobot kit (Qiagen), according to the manufacturer's protocol. If the protocol starts from DNA containing the HIV material such as proviral DNA, the reverse transcriptase step is not needed. The nested approach is also not needed when starting from proviral DNA. The obtained amplicons were sequenced using the primers: In_seq1F (SEQ ID NO 17), In_seq2F (SEQ ID NO 18), In_seq3F (SEQ ID NO 19), IN_seq1R (SEQ ID NO 20), IN_seq2R (SEQ ID NO 21), and IN_seq3R (SEQ ID NO 22).
(§2) A ΔR-IN-vif or ΔIN deletion construct was generated by site-directed mutagenesis on the template pSV40HXB2D with the primers MUT-IN1 (SEQ ID NO 13) and MUT-IN2 (ΔR-IN-vif construct) (SEQ ID NO 14) or MUT-IN3 (SEQ ID NO 15) and MUT-IN4 (SEQ ID NO 16) (ΔIN construct) (protocol Site-directed mutagenesis kit, Stratagene). After DpnI digestion for removal of the methylated template DNA, the construct was digested with SmaI and ligated to circulize the plasmid. The plasmid was transformed into competent cells such as Top10 cells, and colonies were screened for the presence of the deletion construct. The IN-deletion construct was checked by sequence analysis with primers 5'EGINT1 (SEQ ID NO 1) or […] and 3'EGINT10 (SEQ ID NO 11) or 3'EGINT11 (SEQ ID NO 12). For use in recombination experiments, large-scale plasmid DNA preparations were linearized by SmaI digestion and recombined with PCR amplified integrase genes from wild type, mutant, or patient viruses. The plasmid containing the integrase deletion (ΔIN) has been deposited pSV40HXB2D-ΔIN. The sequence of said plasmid is 14377 nucleotides long. The ΔR-IN-vif deletion construct is 13975 nucleotides long. The pSV40HXB2D-ΔIN was deposited at the Belgian Coordinated Collections of Micro-Organisms located at the Universiteit Gent - Laboratorium voor Moleculaire Biologie on August 5, 2002 and the accession number is LMBP 4574.
(§3) Recombinant virus was produced by co-transfection by electroporation of the SmaI-linearized IN-deletion construct and the integrase amplicon into MT4 cells or MT4 cells equipped with an LTR driven reporter gene construct. Production of recombinant virus was evaluated by scoring the cytopathogenic effect (CPE) that is induced by HIV-infection of MT4 cells or by the LTR-driven reporter signal induced by HIV infection in MT4 reporter cells.

In the next assay the test system is WT III B. The experiment in a line: microbe, parasite or virus in culture. Format: cell-based, HIV-1. The note with it: for fold change: fold change in EC50. The protocol: as §1, §2, §3
Another assay has as its system T661/M154I mutations. Nature of the assay: Antiviral assay with recombinant virus generated from site-directed mutant virus. The format is cell-based, HIV. The protocol:
as §1
(§4) Recombinant virus was produced by co-transfection by electroporation of the SmaI-linearized IN-deletion construct and the integrase amplicon into MT4 cells or MT4 cells equipped with an LTR driven reporter gene construct. Production of recombinant virus was evaluated by scoring the cytopathogenic effect (CPE) that is induced by HIV-infection of MT4 cells or by the LTR-driven reporter signal induced by HIV infection in MT4 reporter cells. Green fluorescent protein was used as the reporter signal. Viruses are harvested and titrated at maximum CPE. For recombination the deletion construct pSV40HXB2D-ΔIN was used. Recombination experiments were performed with amplicon from wildtype HIV IIIB and NL4.3, and patient sample 146514 generated by both primer sets. For each recombination 2 µg amplicon was co-transfected with 10 µg SmaI-digested pSV40HXB2D-ΔIN by electroporation into MT4-LTR-EGFP cells. Virus stocks were titrated and tested in an antiviral experiment on a reference panel including nucleoside reverse transcriptase inhibitors (NRTI), non- nucleoside reverse transcriptase inhibitors (NNRTI), protein inhibitor (PR), entry and integrase (IN) inhibitors (Table 2). Recombination was checked by nucleic acid sequence analysis using protocols known to the person skilled in the art. Sequencing primers which can be used are In_seq1F (SEQ ID NO 17), In_seq2F (SEQ ID NO 18), In_seq3F (SEQ ID NO 19), IN_seq1R (SEQ ID NO 20), IN_seq2R (SEQ ID NO 21), and IN_seq3R (SEQ ID NO 22).

In a further assay the test system is M154I mutation. The assay is described as above. The format is cell-based, HIV. The protocol:
as §1, §4

The next assay concerns T66I/S153Y mutations. The description is as above. The format is cell-based, HIV. The protocol:
as §1, §4

Another assay has as its system T66I mutation. The assay is described as above. Format: cell-based, HIV. The protocol: as §1, §4
For a further assay, the system named is S153Y. The assay is described as above. The format is cell-based, HIV. The protocol: as §1, §4

As a reminder, the EC50 is the concentration giving half of the maximal effect. For `CC(C)Oc1ccc(Cc2ccccc2)cc1C(=O)CC(=O)C(=O)O` [Compound 4, 2-(1-methylethyloxy)-α,γ dioxo-5-(phenylmethyl)-benzenebutanoic acid], the fold change with NL 4-3 (AVE 1, NL 4-3, primer set 3) is 0,6; with NL 4-3 (AVE 4, NL4-3, primer set 4), 0,9; in the assay on WT III B (AVE 3, WT III B, primer set 3) it was 0,4; in the assay on WT III B (AVE 5, WT III B, primer set 4) it was 0,7. Also, the EC50 in the assay on NL 4-3 (Human immunodeficiency virus 1, AVE 1, NL 4-3, primer set 3) was 172 nM; in the assay on NL 4-3 (Human immunodeficiency virus 1, NL43, AVE 4, NL4-3, primer set 4), 242 nM; with WT III B (Human immunodeficiency virus 1, AVE 3, WT III B, primer set 3) it was 106 nM; in the assay on WT III B (Human immunodeficiency virus 1, AVE 5, WT III B, primer set 4), 186 nM. In addition, the “fold increase in EC50” value was 10 fold in the assay on T661/M154I mutations; 3 fold in the assay on M154I mutation; 10 fold with T66I/S153Y mutations; 2 fold with T66I mutation; 5 fold in the assay with S153Y.
